Source: PubChem BioAssay AID328 (DTP/NCI, 2004)
Several values for one entry are separate records, joined by “and”; a condition that tells them apart may be missing. Identical values can stand only once. Toxic doses and inconclusive results are not listed.

Tested on: BDF1 mice, P388 leukemia ip, median survival T/C
Experiment: NCI In Vivo Anticancer Drug Screen. Data for tumor model P388 Leukemia (intraperitoneal) in B6D2F1 (BDF1) mice
Conditions: endpoint: median survival time, higher = longer survival
Summary of the method: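 Survival ratio, drug arm over vehicle arm, in mice with a transplanted tumour.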

[1] = dose: 100.0 mg/kg/injection, schedule: Q01DX009 (ip), vehicle: saline with Tween-80
[2] = dose: 100.0 mg/kg/injection, schedule: Q01DX001 (ip), vehicle: other
[3] = dose: 400.0 mg/kg/injection, schedule: Q01DX001 (ip), vehicle: other

For `NC(=S)N/N=C\c1ccc(/C=N/NC(N)=S)cc1`, the T/C (dose: 25.0 mg/kg/injection, schedule: Q04DX003 (ip), vehicle: saline with Tween-80) was 111 % of control, the T/C (dose: 50.0 mg/kg/injection, schedule: Q04DX003 (ip), vehicle: saline with Tween-80) was 108 % of control and the T/C (dose: 100.0 mg/kg/injection, schedule: Q04DX003 (ip), vehicle: saline with Tween-80) was 100 % of control.
In the case of `O=S(=O)(F)c1cc(C[P+](c2ccccc2)(c2ccccc2)c2ccccc2)ccc1Cl`, the T/C (dose: 2.0 mg/kg/injection, schedule: Q01DX009 (ip), vehicle: saline with Tween-80) was 109 % of control, the T/C (dose: 8.0 mg/kg/injection, schedule: Q01DX009 (ip), vehicle: Klucel (hydroxypropylcellulose) (HPC)) was 118 % of control and the T/C (dose: 8.0 mg/kg/injection, schedule: Q01DX009 (ip), vehicle: saline + alcohol) was 123 % of control. The T/C (dose: 12.0 mg/kg/injection, schedule: Q01DX009 (ip), vehicle: saline + alcohol) was 115 % of control, the T/C (dose: 18.0 mg/kg/injection, schedule: Q01DX009 (ip), vehicle: saline + alcohol) was 123 % of control and the T/C (dose: 25.0 mg/kg/injection, schedule: Q01DX009 (ip), vehicle: saline with Tween-80) was 110 % of control.
For `NC(=O)c1cn(C2OC(CO)C(O)C2O)c2ncnc(N)c12` (configuration not stated), the T/C (dose: 0.18 mg/kg/injection, schedule: Q01DX009 (ip), vehicle: saline with Tween-80) was 183 % of control, the T/C (dose: 0.25 mg/kg/injection, schedule: Q01DX010 (ip), vehicle: water) was 181 % of control and the T/C (dose: 0.37 mg/kg/injection, schedule: Q01DX009 (ip), vehicle: saline with Tween-80) was 162 % of control. For the same compound, the T/C (dose: 0.5 mg/kg/injection, schedule: Q01DX010 (ip), vehicle: water) was 190 % of control, the T/C (dose: 0.5 mg/kg/injection, schedule: Q04DX003 (ip), vehicle: saline) was 163 % of control and the T/C (dose: 0.75 mg/kg/injection, schedule: Q01DX009 (ip), vehicle: saline with Tween-80) was 187 % of control and 200 % of control. For the same compound, the T/C (dose: 0.75 mg/kg/injection, schedule: Q01DX010 (ip), vehicle: water) was 177 % of control, the T/C (dose: 1.5 mg/kg/injection, schedule: Q01DX009 (ip), vehicle: saline with Tween-80) was 195 % of control and the T/C (dose: 1.5 mg/kg/injection, schedule: Q04DX003 (ip), vehicle: saline) was 154 % of control. The T/C (dose: 2.0 mg/kg/injection, schedule: Q04DX003 (ip), vehicle: saline with Tween-80) was 122 % of control, the T/C (dose: 3.0 mg/kg/injection, schedule: Q04DX003 (ip), vehicle: saline with Tween-80) was 195 % of control and the T/C (dose: 3.0 mg/kg/injection, schedule: Q04DX003 (ip), vehicle: saline) was 195 % of control. For the same compound, the T/C (dose: 6.0 mg/kg/injection, schedule: Q04DX003 (ip), vehicle: saline with Tween-80) was 190 % of control and the T/C (dose: 6.0 mg/kg/injection, schedule: Q04DX003 (ip), vehicle: saline) was 90 % of control.
In the case of `CCOC(=O)C1OC(n2cnc3c(N)ncnc32)C(O)C1O` (configuration not stated), the T/C (dose: 6.25 mg/kg/injection, schedule: Q01DX009 (ip), vehicle: saline) was 103 % of control, the T/C (dose: 12.5 mg/kg/injection, schedule: Q01DX009 (ip), vehicle: saline) was 94 % of control and the T/C (dose: 25.0 mg/kg/injection, schedule: Q01DX009 (ip), vehicle: saline) was 94 % of control. For the same compound, the T/C (dose: 50.0 mg/kg/injection, schedule: Q01DX009 (ip), vehicle: saline) was 92 % of control.
With `Cc1cc(N=NC(N)=S)c2ccccc2c1O` the T/C [1] was 103 % of control and the T/C (dose: 200.0 mg/kg/injection, schedule: Q01DX009 (ip), vehicle: saline with Tween-80) was 100 % of control.
In the case of `CCCc1cc(CCC)n2nc(N)nc2n1`, the T/C (dose: 50.0 mg/kg/injection, schedule: Q01DX009 (ip), vehicle: saline with Tween-80) was 109 % of control and the T/C [1] was 100 % of control.
For `CC(NC(=O)c1ccc(Cl)cc1Cl)c1ccccc1` (configuration not stated), the T/C [2] was 100 % of control and the T/C [3] was 95 % of control.
In the case of `CC(O)CC1CCCCN1O` (configuration not stated), the T/C (dose: 100.0 mg/kg/injection, schedule: Q04DX002 (ip), vehicle: saline with Tween-80) was 110 % of control, the T/C (dose: 200.0 mg/kg/injection, schedule: Q04DX002 (ip), vehicle: saline with Tween-80) was 101 % of control and the T/C (dose: 400.0 mg/kg/injection, schedule: Q04DX002 (ip), vehicle: saline with Tween-80) was 100 % of control.
In the case of `CCOC(=O)C1CN(Cc2ccccc2)CCC1=O` (configuration not stated), the T/C (dose: 50.0 mg/kg/injection, schedule: Q01DX001 (ip), vehicle: saline) was 104 % of control, the T/C (dose: 100.0 mg/kg/injection, schedule: Q01DX001 (ip), vehicle: saline) was 95 % of control and the T/C (dose: 200.0 mg/kg/injection, schedule: Q01DX001 (ip), vehicle: saline) was 90 % of control.
`O=C1OCCC1C(=O)C(O)(C(F)(F)F)C(F)(F)F` (configuration not stated) was tested, and the T/C [2] was 90 % of control, the T/C (dose: 200.0 mg/kg/injection, schedule: Q01DX001 (ip), vehicle: other) was 90 % of control and the T/C [3] was 100 % of control.
